Reference: the supplement of paper PMC10307832

What was measured:
Assay in all cases: relative viability (nuclei count vs DMSO), 5 days (fraction); higher = more cells survive
NCI-H2170 = system: NCI-H2170
Summary of the method: (§1)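 Lung cancer cell lines in 1536-well plates got either a single drug or a fixed anchor-drug dose together with five library-drug doses (not always all listed) in √10 steps, by pin tool, on the day after seeding. Nuclei were counted after 5 days, and relative viability is the treated-to-vehicle ratio of nuclei counts. Values are medians of duplicate plates.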

NCI-H2405 = system: NCI-H2405
Summary of the method: as §1

ChaGo-K-1 = system: ChaGo-K-1
Summary of the method: as §1

NCI-H3122 = system: NCI-H3122
Summary of the method: as §1

NCI-H1734 = system: NCI-H1734
Summary of the method: as §1

NCI-H1793 = system: NCI-H1793
Summary of the method: as §1

NCI-H2228 = system: NCI-H2228
Summary of the method: as §1

UMC-11 = system: UMC-11
Summary of the method: as §1

NCI-H1395 = system: NCI-H1395
Summary of the method: as §1

RERF-LC-KJ = system: RERF-LC-KJ
Summary of the method: as §1

CAL-12T = system: CAL-12T
Summary of the method: as §1

LC-2-ad = system: LC-2-ad
Summary of the method: as §1

NCI-H1651 = system: NCI-H1651
Summary of the method: as §1

NCI-H1755 = system: NCI-H1755
Summary of the method: as §1

NCI-H460 = system: NCI-H460
Summary of the method: as §1

LU99A = system: LU99A
Summary of the method: as §1

ABC-1 = system: ABC-1
Summary of the method: as §1

LOU-NH91 = system: LOU-NH91
Summary of the method: as §1

HCC-366 = system: HCC-366
Summary of the method: as §1

PC-3 [JPC-3] = system: PC-3 [JPC-3]
Summary of the method: as §1

EPLC-272H = system: EPLC-272H
Summary of the method: as §1

HCC-78 = system: HCC-78
Summary of the method: as §1

NCI-H2087 = system: NCI-H2087
Summary of the method: as §1

NCI-H1944 = system: NCI-H1944
Summary of the method: as §1

In the case of `COc1cc(N2CCC(C(N)=O)CC2)ccc1Nc1nc(N)c(Cl)c(Nc2ccccc2S(=O)(=O)C(C)C)n1` [HG-5-88-01] + N=C(N)NC(=N)NCCc1ccccc1 [Phenformin] (partner 250 µM), the relative viability (NCI-H2170; first compound 0.04 µM) is reported as 0.466, the relative viability (NCI-H2170; first compound 0.1265 µM) is reported as 0.442 and the relative viability (NCI-H2170; first compound 0.4 µM) is reported as 0.461. It also gave a relative viability (NCI-H2170; first compound 1.265 µM) of 0.304, a relative viability (NCI-H2170; first compound 4 µM) of 0.352 and a relative viability (NCI-H2405; first compound 0.04 µM) of 0.46. For the same compound, the relative viability (NCI-H2405; first compound 0.1265 µM) was 0.484, the relative viability (NCI-H2405; first compound 0.4 µM) was 0.469 and the relative viability (NCI-H2405; first compound 1.265 µM) was 0.38. The relative viability (NCI-H2405; first compound 4 µM) was 0.432, the relative viability (ChaGo-K-1; first compound 0.04 µM) was 0.586 and the relative viability (ChaGo-K-1; first compound 0.1265 µM) was 0.51. It also gave a relative viability (ChaGo-K-1; first compound 0.4 µM) of 0.449, a relative viability (ChaGo-K-1; first compound 1.265 µM) of 0.525 and a relative viability (ChaGo-K-1; first compound 4 µM) of 0.383. For the same compound, the relative viability (NCI-H3122; first compound 0.04 µM) was 0.216, the relative viability (NCI-H3122; first compound 0.1265 µM) was 0.17 and the relative viability (NCI-H3122; first compound 0.4 µM) was 0.146. The relative viability (NCI-H3122; first compound 1.265 µM) was 0.129, the relative viability (NCI-H3122; first compound 4 µM) was 0.15 and the relative viability (NCI-H1734; first compound 0.04 µM) was 0.345. It also gave a relative viability (NCI-H1734; first compound 0.1265 µM) of 0.364, a relative viability (NCI-H1734; first compound 0.4 µM) of 0.333 and a relative viability (NCI-H1734; first compound 1.265 µM) of 0.371. The relative viability (NCI-H1734; first compound 4 µM) was 0.355, the relative viability (NCI-H1793; first compound 0.1265 µM) was 0.431 and the relative viability (NCI-H1793; first compound 0.4 µM) was 0.375. The relative viability (NCI-H1793; first compound 4 µM) was 0.221, the relative viability (NCI-H2228; first compound 0.04 µM) was 0.146 and the relative viability (NCI-H2228; first compound 0.1265 µM) was 0.124. It also gave a relative viability (NCI-H2228; first compound 0.4 µM) of 0.174, a relative viability (NCI-H2228; first compound 1.265 µM) of 0.0974 and a relative viability (NCI-H2228; first compound 4 µM) of 0.0828. The relative viability (UMC-11; first compound 0.04 µM) was 0.336, the relative viability (UMC-11; first compound 0.1265 µM) was 0.419 and the relative viability (UMC-11; first compound 1.265 µM) was 0.359. For the same compound, the relative viability (UMC-11; first compound 4 µM) was 0.263, the relative viability (NCI-H1395; first compound 0.04 µM) was 0.423 and the relative viability (NCI-H1395; first compound 0.1265 µM) was 0.422. For the same compound, the relative viability (NCI-H1395; first compound 0.4 µM) was 0.45, the relative viability (NCI-H1395; first compound 1.265 µM) was 0.449 and the relative viability (NCI-H1395; first compound 4 µM) was 0.463. It also gave a relative viability (RERF-LC-KJ; first compound 0.04 µM) of 0.421, a relative viability (RERF-LC-KJ; first compound 0.1265 µM) of 0.4 and a relative viability (RERF-LC-KJ; first compound 0.4 µM) of 0.407. For the same compound, the relative viability (RERF-LC-KJ; first compound 1.265 µM) was 0.371, the relative viability (RERF-LC-KJ; first compound 4 µM) was 0.241 and the relative viability (CAL-12T; first compound 0.04 µM) was 0.543. The relative viability (CAL-12T; first compound 0.1265 µM) was 0.572, the relative viability (CAL-12T; first compound 0.4 µM) was 0.533 and the relative viability (CAL-12T; first compound 1.265 µM) was 0.392. The relative viability (CAL-12T; first compound 4 µM) was 0.253, the relative viability (LC-2-ad; first compound 0.04 µM) was 0.717 and the relative viability (LC-2-ad; first compound 0.1265 µM) was 0.69. The relative viability (LC-2-ad; first compound 0.4 µM) was 0.598, the relative viability (LC-2-ad; first compound 1.265 µM) was 0.472 and the relative viability (LC-2-ad; first compound 4 µM) was 0.415. It also gave a relative viability (NCI-H1651; first compound 0.04 µM) of 0.358, a relative viability (NCI-H1651; first compound 0.1265 µM) of 0.341 and a relative viability (NCI-H1651; first compound 0.4 µM) of 0.367. The relative viability (NCI-H1651; first compound 1.265 µM) was 0.348, the relative viability (NCI-H1651; first compound 4 µM) was 0.346 and the relative viability (NCI-H1755; first compound 0.04 µM) was 0.634. The relative viability (NCI-H1755; first compound 0.1265 µM) was 0.612, the relative viability (NCI-H1755; first compound 0.4 µM) was 0.605 and the relative viability (NCI-H1755; first compound 1.265 µM) was 0.616. For the same compound, the relative viability (NCI-H1755; first compound 4 µM) was 0.521, the relative viability (NCI-H460; first compound 0.04 µM) was 0.497 and the relative viability (NCI-H460; first compound 0.1265 µM) was 0.491. For the same compound, the relative viability (NCI-H460; first compound 0.4 µM) was 0.587, the relative viability (NCI-H460; first compound 1.265 µM) was 0.51 and the relative viability (NCI-H460; first compound 4 µM) was 0.214. It also gave a relative viability (LU99A; first compound 0.04 µM) of 0.801, a relative viability (LU99A; first compound 0.1265 µM) of 0.78 and a relative viability (LU99A; first compound 0.4 µM) of 0.823. The relative viability (LU99A; first compound 1.265 µM) was 0.921, the relative viability (LU99A; first compound 4 µM) was 0.593 and the relative viability (ABC-1; first compound 0.04 µM) was 0.272. The relative viability (ABC-1; first compound 0.1265 µM) was 0.233, the relative viability (ABC-1; first compound 0.4 µM) was 0.2 and the relative viability (ABC-1; first compound 1.265 µM) was 0.207. It also gave a relative viability (ABC-1; first compound 4 µM) of 0.24, a relative viability (LOU-NH91; first compound 0.04 µM) of 0.701 and a relative viability (LOU-NH91; first compound 0.1265 µM) of 0.721. It also gave a relative viability (LOU-NH91; first compound 0.4 µM) of 0.664, a relative viability (LOU-NH91; first compound 1.265 µM) of 0.421 and a relative viability (LOU-NH91; first compound 4 µM) of 0.416. The relative viability (HCC-366; first compound 0.04 µM) was 0.685, the relative viability (HCC-366; first compound 0.1265 µM) was 0.634 and the relative viability (HCC-366; first compound 0.4 µM) was 0.581. It also gave a relative viability (HCC-366; first compound 1.265 µM) of 0.681, a relative viability (HCC-366; first compound 4 µM) of 0.476 and a relative viability (PC-3 [JPC-3]; first compound 0.04 µM) of 0.48. For the same compound, the relative viability (PC-3 [JPC-3]; first compound 0.1265 µM) was 0.457, the relative viability (PC-3 [JPC-3]; first compound 0.4 µM) was 0.488 and the relative viability (PC-3 [JPC-3]; first compound 1.265 µM) was 0.461. It also gave a relative viability (PC-3 [JPC-3]; first compound 4 µM) of 0.39, a relative viability (EPLC-272H; first compound 0.04 µM) of 0.352 and a relative viability (EPLC-272H; first compound 0.1265 µM) of 0.34. The relative viability (EPLC-272H; first compound 0.4 µM) was 0.274, the relative viability (EPLC-272H; first compound 1.265 µM) was 0.253 and the relative viability (EPLC-272H; first compound 4 µM) was 0.0477. The relative viability (HCC-78; first compound 0.04 µM) was 0.602, the relative viability (HCC-78; first compound 0.1265 µM) was 0.584 and the relative viability (HCC-78; first compound 0.4 µM) was 0.447. The relative viability (HCC-78; first compound 1.265 µM) was 0.306, the relative viability (HCC-78; first compound 4 µM) was 0.324 and the relative viability (NCI-H2087; first compound 0.04 µM) was 0.523. The relative viability (NCI-H2087; first compound 0.1265 µM) was 0.49, the relative viability (NCI-H2087; first compound 0.4 µM) was 0.469 and the relative viability (NCI-H2087; first compound 1.265 µM) was 0.342. It also gave a relative viability (NCI-H2087; first compound 4 µM) of 0.319, a relative viability (NCI-H1944; first compound 0.04 µM) of 0.213 and a relative viability (NCI-H1944; first compound 0.1265 µM) of 0.241. The relative viability (NCI-H1944; first compound 0.4 µM) was 0.262, the relative viability (NCI-H1944; first compound 1.265 µM) was 0.209 and the relative viability (NCI-H1944; first compound 4 µM) was 0.22.
